The test system of this assay is relapsed AML cells. The assay can be described thus: Drug sensitivity assay, 1,536-well, 3-day culture with individual approved drugs at 10 μM, viability by alamarBlue. It counts as cell-based, human. How it is done:
Drug sensitivity assays were performed using a 1,536-well platform where all cells and reagents were deposited in wells using an acoustic liquid handling unit that is highly accurate for dispensing of nanoliter volumes of liquid. […] After dispensing the cells into the wells, an independent drug at a known concentration is added to each well and incubated with the cells. After three days, the percentage of live cells in each well is determined to assess the killing efficiency of each compound. […] Cell viability assays are known to those of skill in the art. See, for example, Pemovska et al., Individualized systems medicine strategy to tailor treatments for patients with chemorefractory acute myeloid leukemia. Cancer Discovery 3:1416-1429, 2013; Pabst et al., Identification of small molecules that support human leukemia stem cell activity ex vivo. Nature Methods 11:436-442, 2014; Baccelli et al., A novel approach for the identification of efficient combination therapies in primary human acute myeloid leukemia specimens. Blood Cancer Journal 7:e529, 2017. In studies described herein, the 1,536-well format was utilized, which allowed for use of four times fewer cells as well as less drug and media components due to the small assay volume of 5 microliters. […] Other compounds like CellTiter-Glo (Promega, Madison, Wis.) are equally appropriate reagents for determining cell viability.
Conditions for the drug screening assays were as described in Pabst et al., Identification of small molecules that support human leukemia stem cell activity ex vivo, Nature Methods 11:436-442, 2014). Using this protocol, cells were cultured in Iscove's Modified Dulbecco's Medium (IMDM), 15% BIT (bovine serum albumin, insulin, transferrin; Stem Cell Technologies 09500 (Vancouver, Calif.)), 100 ng/ml SCF (Shenandoah 100-04 (Warwick, Pa.)), 50 ng/ml FLT3L (Shenandoah 100-21), 20 ng/ml IL-3 (Shenandoah 100-80), 20 ng/ml G-CSF (Shenandoah 100-72), 10^-4 M β-mercaptoethanol, gentamicin (50 μg/ml) and ciprofloxacin (10 μg/ml).
Cells were removed from liquid nitrogen and placed in a 37° C. bath, just until thawed. For 1,536-well screens utilizing 6,000 wells about 100 million cells were thawed. The volume was doubled with pre-warmed culture media and placed on ice for about one to two minutes. The cells were brought to a final volume of about 8 to 10 mL before spinning down at 1,100 rpm for 5 min at 10° C. The pelleted cells were resuspended in 10 mL of culture media and plated in a tissue-culture treated T75 flask at a density of 1 to 2 million cells/ml. The cells were cultured overnight prior to fluorescence-activated cell sorting of viable cells on the following day.
After cells were cultured overnight, a cell scraper was used to remove any cells that adhered to the plastic. The cells were gently pipetted up and down to break up aggregates. Then, the entire volume was transferred to a 50 mL conical tube through a 70 micron cell strainer to remove cell clumps. The T75 flask was rinsed and scraped with about 10 mL HBSS and transferred to the same 50 mL conical tube through the strainer. The harvested cells were spun down at 1,100 rpm for 5 min at 10° C. The cells were then resuspendd in about 300-500 microliters FACS buffer (HBSS+2% FBS+1× propidium iodide) and transferred to a FACS tube. The tube was placed on ice and viable cells that are forward- and side-scatter gated on viable myeloid blasts were sorted by FACS (the scatter gate should exclude small lymphocytes, large myeloid cells, and debris). After sorting the required number of viable cells, the cells were spun down at 1,100 rpm for 5 min at 10° C. and subsequently resuspended at 4,000-4,500 cells per 5 microliter volume of complete culture media with growth factors and penicillin/streptomycin.
On the technique in general: Alamar Blue is a resazurin reagent that responds to reducing activity.

Setting [1] is: number of relapsed AML cases out of 18 tested with >70% cell death, 10 μM, 3-day culture.

Structures can show the parent of a compound that is named as a salt. Where two headings read alike, the source gives them in different places.

Turning to `CC(=O)N1CCN(c2ccc(OCC3COC(Cn4ccnc4)(c4ccc(Cl)cc4Cl)O3)cc2)CC1` (stereo not drawn) [KETOCONAZOLE], the “#Cases >70% cell death” value under setting [1] was determined as 5.
Regarding `O=C(NC1CCNCC1)c1[nH]ncc1NC(=O)c1c(Cl)cccc1Cl` [AT-7519], under setting [1], the “#Cases >70% cell death” value came to 18.
As to `CC(=O)O[C@@]12CO[C@@H]1C[C@H](O)[C@@]1(C)C(=O)[C@H](O)C3=C(C)[C@@H](O)C[C@@](O)([C@@H](OC(=O)c4ccccc4)[C@H]21)C3(C)C` [10-DAB], the “#Cases >70% cell death” value under setting [1] amounted to 1.
For `O=C1c2c(O)ccc(O)c2C(=O)c2c(NCCNCCO)ccc(NCCNCCO)c21` [MITOXANTRONE], the “#Cases >70% cell death” value under setting [1] stood at 18.
On the same count and under the same terms, the value for `Clc1ccc2c(c1)CCc1cccnc1C2=C1CCNCC1` [DESLORATADINE] was 1.
Turning to `Cc1cc(C(C)(C)CC(C)(C)C)ccc1OCCOCC[N+](C)(C)Cc1ccccc1.[Cl-]` [METHYLBENZETHONIUM CHLORIDE], the “#Cases >70% cell death” value under setting [1] is listed as 16.
As for EXATECAN MESYLATE, the “#Cases >70% cell death” value under setting [1] turned out to be 12.
Regarding `Cn1c(=O)c2c(ncn2CC2OCCO2)n(C)c1=O` [DOXOFYLLINE], the “#Cases >70% cell death” value under setting [1] stood at 1.
Take `COc1ccc(-c2ccc3ncc4c(c3c2)n(-c2ccc(N3CCNCC3)c(C(F)(F)F)c2)c(=O)n4C)cn1` [NVP-BGT226]: the “#Cases >70% cell death” value under setting [1] was determined as 8.
With `Nc1ncn([C@@H]2O[C@H](CO)[C@@H](O)[C@H]2O)c(=O)n1` [AZACYTIDINE], the “#Cases >70% cell death” value under setting [1] is reported as 8.
`CC[C@H]1CN2CCc3cc(OC)c(OC)cc3[C@@H]2C[C@@H]1C[C@H]1NCCc2cc(OC)c(OC)cc21` [EMETINE]: the “#Cases >70% cell death” value under setting [1] is listed as 18.
In the case of `OCCN1CCN(CCCN2c3ccccc3Sc3ccc(Cl)cc32)CC1` [PERPHENAZINE], the “#Cases >70% cell death” value under setting [1] is 2.
`OC(CN1CCC(Cc2ccc(F)cc2)CC1)c1ccc(Cl)cc1` (stereo not drawn) [ELIPRODIL]: the “#Cases >70% cell death” value under setting [1] is recorded as 1.
With `O=c1[nH]c2ccccc2n1C1CCN(CCCC(c2ccc(F)cc2)c2ccc(F)cc2)CC1` [PIMOZIDE], the “#Cases >70% cell death” value under setting [1] is 1.
Still for that read-out and setting: next, `O=C(CCCCCCC(=O)Nc1cccnc1)NO` [PYROXAMIDE]: 15.
On to `O=C(Nc1ccc([N+](=O)[O-])cc1Cl)c1cc(Cl)ccc1O` [NICLOSAMIDE], for which the “#Cases >70% cell death” value under setting [1] is given as 1.
On the same count and under the same terms, next, `[H]/N=C(\N/C(=N/[H])NCCCCCCNC(=N)NC(=N)Nc1ccc(Cl)cc1)Nc1ccc(Cl)cc1` [CHLORHEXIDINE DIHYDROCHLORIDE]: 11.
Turning to `[O-][n+]1ccccc1[S-].[O-][n+]1ccccc1[S-].[Zn+2]` [PYRITHIONE ZINC], the “#Cases >70% cell death” value stood at 7.
Turning to `CC(C)Oc1ccc(C(=O)N[C@H](CNC(=O)CN(C)C)Cc2ccc(-c3cn4cccc([C@H](C)O)c4n3)cc2)cc1Cl` [GSK923295], the “#Cases >70% cell death” value under setting [1] is reported as 8.
Still for that read-out and setting: next, `Cn1c(C#N)ccc1-c1ccc2c(c1)C(C)(C)OC(=S)N2` [TANAPROGET]: 5; `CC(=O)CC(c1ccc([N+](=O)[O-])cc1)c1c(O)c2ccccc2oc1=O` (stereo not drawn) [ACENOCOUMAROL]: 4; `CCOC(=O)/C=C(C)/C=C/C=C(C)/C=C/c1c(C)cc(OC)c(C)c1C` [ETRETINATE]: 1.
On to `CC(=O)Nc1ccc(C(=O)Nc2ccccc2N)cc1` [TACEDINALINE], for which, under setting [1], the “#Cases >70% cell death” value was found to be 4.
`Cc1[nH]c2ccccc2c1CCNCc1ccc(/C=C/C(=O)NO)cc1` [PANOBINOSTAT]: the “#Cases >70% cell death” value under setting [1] was determined as 1.
For the compound `COc1cc(NS(C)(=O)=O)ccc1Nc1c2ccccc2nc2ccccc12` [AMSACRINE], the “#Cases >70% cell death” value under setting [1] came out at 4.
As for `COc1cc2c(c(OC)c1OC)-c1ccc(OC)c(=O)cc1[C@@H](NC(C)=O)CC2` [COLCHICINE], the “#Cases >70% cell death” value under setting [1] is reported as 13.
In the case of `Cc1nc(Nc2ncc(C(=O)Nc3c(C)cccc3Cl)s2)cc(N2CCN(CCO)CC2)n1` [DASATINIB], the “#Cases >70% cell death” value under setting [1] worked out at 6.
In the case of `CN(C[C@@H]1COCCO1)S(=O)(=O)Nc1ccc2ccc3ncc(-c4cnn(C)c4)cc3c(=O)c2c1` [MK-2461], the “#Cases >70% cell death” value under setting [1] came to 2.
As for `CCCNCC(O)COc1ccccc1C(=O)CCc1ccccc1` (stereo not drawn) [PROPAFENONE], the “#Cases >70% cell death” value under setting [1] is given as 1.
Consider `CN(C(=O)CN(CCO)CC(=O)N(C)C(C)(C)Cc1ccccc1)C(C)(C)Cc1ccccc1` [OXETHAZAINE], for which the “#Cases >70% cell death” value under setting [1] is on record as 1.
On the same count and under the same terms, the value for `C[C@]12C=CC(=O)C=C1CC[C@@H]1[C@@H]2[C@@H](O)C[C@@]2(C)[C@H]1CC[C@]2(O)C(=O)CO` [PREDNISOLONE] was 1; that for `COc1ccc(C[C@H](N)C(=O)N[C@H]2[C@@H](O)[C@H](n3cnc4c(N(C)C)ncnc43)O[C@@H]2CO)cc1` [PUROMYCIN] was 18.
Same read-out and setting: next, `CN(C)C[C@@H]1CCn2cc(c3ccccc32)C2=C(C(=O)NC2=O)c2cn(c3ccccc23)CCO1` [LY333531]: 12; `COc1cc([C@@H]2c3cc4c(cc3[C@@H](O[C@@H]3O[C@@H]5CO[C@@H](C)O[C@H]5[C@H](O)[C@H]3O)[C@H]3COC(=O)[C@H]23)OCO4)cc(OC)c1O` [ETOPOSIDE]: 5.
The same measure, in the same setting: the value for `CCCCOc1ccc(CC(=O)NO)cc1` [BUFEXAMAC] was 9; that for `Cc1cc([C@@H](C)Nc2ccccc2C(=O)O)c2nc(N3CCOCC3)cc(=O)n2c1` [AZD-6482] was 1; that for APILIMOD MESYLATE was 4.
For the compound `CC[C@H](CC#N)OC(=O)N[C@@H](C)c1cccc(NC(=O)Nc2ccc(-c3cnco3)c(OC)c2)c1` [AVN944], the “#Cases >70% cell death” value under setting [1] is reported as 10.
The same measure, in the same setting: the value for `Cc1c(-c2ccc(O)cc2)n(Cc2ccc(OCCN3CCCCCC3)cc2)c2ccc(O)cc12` [BAZEDOXIFENE HCL] was 8; that for `C[n+]1c2cc(N)ccc2cc2ccc(N)cc21.[Cl-]` [ACRIFLAVINIUM HYDROCHLORIDE] was 5; that for `CC[C@@H]([C@H](C)O)n1ncn(-c2ccc(N3CCN(c4ccc(OC[C@@H]5CO[C@@](Cn6cncn6)(c6ccc(F)cc6F)C5)cc4)CC3)cc2)c1=O` [POSACONAZOLE] was 6.
Same read-out and setting: next, `CC[C@@H](C(=O)[C@@H](C)[C@@H](O)[C@H](C)CCc1ccc(C)c(O)c1C(=O)O)[C@H]1O[C@](CC)([C@H]2CC[C@](O)(CC)[C@H](C)O2)C[C@@H]1C` [LASALOCID SODIUM]: 10; `CNC(=O)c1ccccc1Sc1ccc2c(/C=C/c3ccccn3)n[nH]c2c1` [AXITINIB]: 9.
Turning to `COC(=O)C1=C(C)NC(C)=C(C(=O)OCCN2CCN(C(c3ccccc3)c3ccccc3)CC2)C1c1cccc([N+](=O)[O-])c1` (stereo not drawn) [MANIDIPINE], the “#Cases >70% cell death” value under setting [1] was determined as 5.
On to `COc1cc(/C=C/C(=O)CC(=O)/C=C/c2ccc(O)c(OC)c2)ccc1O` [CURCUMIN], for which the “#Cases >70% cell death” value under setting [1] was found to be 1.
`CC[C@H]1OC(=O)C[C@@H](O)[C@H](C)[C@@H](O[C@@H]2O[C@H](C)[C@@H](O[C@H]3C[C@@](C)(O)[C@@H](O)[C@H](C)O3)[C@H](N(C)C)[C@H]2O)[C@@H](CC=O)C[C@@H](C)C(=O)/C=C/C(C)=C/[C@@H]1CO[C@@H]1O[C@H](C)[C@@H](O)[C@@H](OC)[C@H]1OC` [TYLOSIN]: the “#Cases >70% cell death” value under setting [1] was determined as 1.
In the case of `N#CN=C(NCCCCCCOc1ccc(Cl)cc1)Nc1ccncc1` [GMX1778], the “#Cases >70% cell death” value under setting [1] was 16.
For the compound ARSENIC TRIOXIDE DIETHANOLAMINE SALT, the “#Cases >70% cell death” value under setting [1] came to 16.
In the case of `O=C(CCCN1CCN(c2ccccn2)CC1)c1ccc(F)cc1` [AZAPERONE], the “#Cases >70% cell death” value under setting [1] is 1.
Consider `CC(C)NCC(O)COc1ccc(CC(N)=O)cc1` (stereo not drawn) [ATENOLOL], for which the “#Cases >70% cell death” value under setting [1] is recorded as 1.
As to `CCOC(=O)C1=C(COCCN)NC(C)=C(C(=O)OC)C1c1ccccc1Cl` (stereo not drawn) [AMLODIPINE], the “#Cases >70% cell death” value under setting [1] was determined as 14.

(Values after patent US20210405025A1, “IDENTIFYING COMPOUNDS FOR TREATING CANCER AND USE THEREOF” (THE UAB RESEARCH FOUNDATION, priority 2018, published 2021).)
